Experimental data taken from paper PMC10056986 (Pharmaceuticals, 2023).

Legend:
[1] = system: influenza A virus/California/07/2009 (H1N1); design: species or system ferrets; settings: in vivo, po, 25 mg/kg/day
[2] = molecular target: CB2 (Homo sapiens, UniProt P34972); test: cell-based
[3] = molecular target: H1 (Homo sapiens, UniProt P35367); test: cell-based
[4] = in vitro; settings: rhesus monkey
[5] = molecular target: op-mu (Homo sapiens, UniProt P35372); test: cell-based
[6] = system: Influenza virus A/Hong Kong/8/68 (H3N2); test: microbe, parasite or virus in culture; format: cell-based; settings: unidentified influenza virus, H3N2, MDCK, read-out: EC50 (mean ± SD)
[7] = 10,000 nM, read-out: Inhibition at Maximum Concentration (%)

op-mu, sequence (P35372 whole entry): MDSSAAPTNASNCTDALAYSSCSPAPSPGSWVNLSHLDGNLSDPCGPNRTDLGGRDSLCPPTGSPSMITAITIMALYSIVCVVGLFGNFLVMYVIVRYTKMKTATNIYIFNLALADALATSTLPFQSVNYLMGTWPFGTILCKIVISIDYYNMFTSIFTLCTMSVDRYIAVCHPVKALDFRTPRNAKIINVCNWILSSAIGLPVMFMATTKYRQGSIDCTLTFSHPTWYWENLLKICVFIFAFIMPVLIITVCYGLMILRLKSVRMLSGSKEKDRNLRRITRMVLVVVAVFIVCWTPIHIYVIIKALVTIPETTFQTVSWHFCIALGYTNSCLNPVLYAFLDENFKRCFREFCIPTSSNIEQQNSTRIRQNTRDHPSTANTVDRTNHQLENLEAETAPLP
CB2, sequence (P34972 whole entry): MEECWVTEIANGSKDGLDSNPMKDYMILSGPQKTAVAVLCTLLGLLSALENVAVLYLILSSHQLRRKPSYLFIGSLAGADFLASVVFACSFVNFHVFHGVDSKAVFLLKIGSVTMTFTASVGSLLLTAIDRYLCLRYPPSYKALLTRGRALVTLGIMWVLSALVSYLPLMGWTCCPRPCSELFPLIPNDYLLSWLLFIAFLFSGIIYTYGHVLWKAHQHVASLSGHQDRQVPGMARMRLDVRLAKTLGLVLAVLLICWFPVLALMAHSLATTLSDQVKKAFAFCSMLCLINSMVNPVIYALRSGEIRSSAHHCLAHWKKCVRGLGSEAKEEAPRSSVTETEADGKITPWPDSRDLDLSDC
H1, sequence (P35367 whole entry): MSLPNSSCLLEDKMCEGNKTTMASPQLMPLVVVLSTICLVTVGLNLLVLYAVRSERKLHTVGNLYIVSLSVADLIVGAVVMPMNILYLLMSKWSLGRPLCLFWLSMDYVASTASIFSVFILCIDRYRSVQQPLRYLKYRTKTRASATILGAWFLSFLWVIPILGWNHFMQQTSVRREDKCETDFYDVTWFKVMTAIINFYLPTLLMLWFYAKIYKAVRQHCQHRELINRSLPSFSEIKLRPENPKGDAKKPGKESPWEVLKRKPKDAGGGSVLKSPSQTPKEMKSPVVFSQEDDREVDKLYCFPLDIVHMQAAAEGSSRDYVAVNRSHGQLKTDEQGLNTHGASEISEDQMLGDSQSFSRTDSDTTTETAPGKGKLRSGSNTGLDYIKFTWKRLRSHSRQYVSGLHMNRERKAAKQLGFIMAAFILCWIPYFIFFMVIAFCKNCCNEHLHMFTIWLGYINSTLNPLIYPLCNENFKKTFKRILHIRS

In the case of O=C(O)[C@H]1C2CCC(CC2)[C@@H]1Nc1nc(-c2n[nH]c3ncc(F)cc23)nc(C2CC2)c1F [ZSP1273], the “viral load in nasal lavage fluid vs vehicle” value [1] is reported as “decreased significantly”, the IC50 [2] is reported as greater than 10 µM and the inhibition at 10 µM [2, 7] is reported as 42%. For the same compound, the IC50 [3] was greater than 10 µM, the inhibition at 10 µM [3, 7] was 13.4% and the CC50 [4] was greater than 10 µM. For the same compound, the EC50 [5] was greater than 12 µM, the “Activity at Maximum Concentration (%)” value ([5]; 12,000 nM) was −3.45% and the EC50 [6] was 0.019 ± 0.01 nM.
